# Laboratory results as given in patent US9440989B2, “Antifibrinolytic compounds” (PROYECTO DE BIOMEDICINA CIMA, S.L., priority 2012, dated 2016).
# Read-outs that look alike come from different tables or passages of the source. Marks after values point to notes of the source that are not given here.
# Assays:
# [1] = tested on: tail bleeding in wild-type C57B16 mice; experiment: Tail bleeding assay, traditional bleeding model; type: in vivo; conditions: intraperitoneal 4 mg/mouse, 160 mg/Kg, tail tip removed 30 min after injection, n = 10
# Protocol: (§1) Bleeding time was evaluated in 2 months old wild-type C57B16 (n=10) mice by removing the tail tip. Mice (20-25 g) were anaesthetized with 2.5% isoflurane and maintained at 37° C. on heating pads. The hemostatic efficacy was evaluated in 2 models, traditional bleeding model and hyperfibrinolytic bleeding model.
# Traditional bleeding model consisted in intraperitoneal injection of different compounds (4 mg/mouse, 160 mg/Kg) dissolved in 2% carboxymethyl cellulose or vehicle. Thirty minutes after injection, 5 mm of tail tip were removed using a scalpel blade and the tail tip bathed in 1 mL of sterile saline at 37° C. The time to cessation of bleeding was measured up to 30 min. The time of bleeding was defined as the interval between initial transection and the visual cessation of bleeding.
# [2] = tested on: human blood (whole blood clot lysis, tPA); experiment: Thromboelastometry (ROTEM, modified in-tem with tPA): whole blood clot formation and lysis, human blood; conditions: read-out: EC50LT (effective concentration to delay lysis time by 50%)
# Protocol: A modification of in-tem test as described below was used for the examination of antifibrinolytic effects of tested compounds and its interaction with platelets in citrated blood.
# In a pre-warmed cuvette and holder 1 μL of Tissue plasminogen activator (tPA) (150,000 U/mL, Actylise), 20 μL of start-tem reagent (CaCl2), 20 μL of in-tem reagent (activators of coagulation system), 3 μL of DMSO (control) or tested compounds (CMs) in DMSO and 300 μL of citrated blood pre-warmed were pipetted. The cup holder containing the sample mixture was placed immediately on the appropriate channel. The measurement was recorded for 60 min to allow clot formation and lysis.
# [3] = tested on: tPA-prolonged tail bleeding in wild type mice (C57/Bl6); experiment: Tail bleeding assay, hyperfibrinolytic bleeding model (tPA 0.5 mg/kg); type: in vivo; conditions: n≧10
# Protocol: as §1
# Hyperfibrinolytic bleeding model, consisted in injection of 0.5 mg/kg tPA into the ocular plexus to prolong bleeding time due to excessive fibrinolysis. […] The catheter was connected to a syringe pump (AL-1000, WPI) for the infusion of 200 μL (10% bolus, 90% perfusion during 40 minutes) of tested agents. Then, tPA (0.5 mg/kg) was injected into the ocular plexus and five minutes after tPA administration, saline or the different compounds was infused through the femoral catheter to ensure systemic distribution of all the agents. Reference compounds, TXA and Aprotinin, were administered at 300 and 10 mg/Kg respectively; however, all compounds of the invention were administered at 1 mg/Kg. Five minutes later, 5 mm of tail tip were removed using a scalpel blade and the tail tip bathed in 1 mL of sterile saline at 37° C.
# The time of bleeding was defined as the interval between initial transections and the visual cessation of bleeding, that was measured up to 30 minutes. A value of 30 min was assigned to those animals bleeding longer than the observation period. […] Bleeding time was determined in wild type mice (C57/Bl6), where n≧10 per assayed compound; therefore, BT is reported as a mean value—in the case of saline, BT is reported as mean±ESM.
# [4] = tested on: mice blood (whole blood clot lysis, tPA); experiment: Thromboelastometry (ROTEM, modified in-tem with tPA): whole blood clot formation and lysis, mice blood; type: cell-based; conditions: Mus musculus, read-out: EC50LT (effective concentration to delay lysis time by 50%), assayed concentrations 1000-0.2 μM
# [5] = 1 mg/Kg infused via femoral vein
# [6] = human blood, tPA, assayed concentrations 1000-0.2 μM
Compound,EC50 ([2]; Homo sapiens),"BT (bleeding time, mean) [3, 5]",further results
COc1ccc(Oc2ccc(S(=O)(=O)C3(C(=O)NO)CCC4(CCCNC4)CC3)cc2)cc1 (centres unmarked) [Example 1-01],< 1000 nM,,Bleeding time [1]: 31.0 ± 3.6 s
COc1ccc(Oc2ccc(S(=O)(=O)C3(C(=O)NO)CCC4(CCCN(C)C4)CC3)cc2)cc1 (centres unmarked) [Example 1-02],10000 to 25000 nM,,Bleeding time [1]: 39.2 ± 4.7 s
O=C(O)c1ccc(Oc2ccc(S(=O)(=O)C3(C(=O)NO)CCC4(CCNCC4)C3)cc2)cc1 (centres unmarked) [Example 1-07],< 1000 nM,++* (10 minutes≦BT<20 minutes (++)),EC50 [4]: < 1 nM
CNC(=O)c1ccc(Oc2ccc(S(=O)(=O)C3(C(=O)NO)CCC4(CCNCC4)C3)cc2)cc1 (centres unmarked) [Example 1-08],< 1000 nM,++++**†† (BT<5 minutes (++++)),EC50 [4]: 1 to 1000 nM
O=C(NO)C1(S(=O)(=O)c2ccc(NC3CCCCC3)cc2)CCC2(CCNCC2)C1 (centres unmarked) [Example 1-14],< 1000 nM,++++**†† (BT<5 minutes (++++)),EC50 [4]: 1 to 1000 nM
O=C(NO)C1(S(=O)(=O)c2ccc(Oc3ccc(OC(F)(F)F)cc3)cc2)CCC2(CCNCC2)C1 (centres unmarked) [Example 1-73],< 1000 nM,++++**†† (BT<5 minutes (++++)),EC50 [4]: 1000 to 10000 nM
O=C(NO)C1(S(=O)(=O)c2ccccc2NC2CCCCC2)CCC2(CCNCC2)C1 (centres unmarked) [Example 1-79],< 1000 nM,++** (10 minutes≦BT<20 minutes (++)),
O=C(NO)C1(S(=O)(=O)c2ccc(NC3CCCCC3)c(Cl)c2)CCC2(CCNCC2)C1 (centres unmarked) [Example 1-80],< 1000 nM,+++**† (5 minutes≦BT<10 minutes (+++)),
O=C(NO)C1(S(=O)(=O)c2ccc(NCC3CCCCC3)cc2)CCC2(CCNCC2)C1 (centres unmarked) [Example 1-82],< 1000 nM,+++** (5 minutes≦BT<10 minutes (+++)),
O=C(NO)C1(S(=O)(=O)c2ccc(NC3CCOCC3)cc2)CCC2(CCNCC2)C1 (centres unmarked) [Example 1-96],< 1000 nM,+++** (5 minutes≦BT<10 minutes (+++)),
O=C(Oc1ccc(S(=O)(=O)C2(C(=O)NO)CCC3(CCNCC3)C2)cc1)c1ccc(OC(F)(F)F)cc1 (centres unmarked) [Example 1-102],> 25000 nM,++* (10 minutes≦BT<20 minutes (++)),
COc1ccc(S(=O)(=O)C2(C(=O)NO)CCC3(CCNCC3)C2)cc1Cl (centres unmarked) [Example 1-107],< 1000 nM,+++** (5 minutes≦BT<10 minutes (+++)),
O=C(NO)C1(S(=O)(=O)c2ccc(OCc3cn[nH]c3)cc2)CCC2(CCNCC2)C1 (centres unmarked) [Example 1-112],< 1000 nM,+++** (5 minutes≦BT<10 minutes (+++)),
CNC(=O)c1ccc(Oc2cccc(S(=O)(=O)C3(C(=O)NO)CCC4(CCNCC4)C3)c2)cc1 (centres unmarked) [Example 1-126],> 25000 nM,,
O=C(O)c1ccc(Oc2cccc(S(=O)(=O)C3(C(=O)NO)CCC4(CCNCC4)C3)c2)cc1 (centres unmarked) [Example 1-127],< 1000 nM,,
"O=C(Oc1ccc(S(=O)(=O)C2(C(=O)NO)CCC3(CCNCC3)C2)cc1Cl)c1ccc(OC(F)(F)F)cc1 (centres unmarked) [Example 1-128, N-hydroxy-3-(3-chloro-4-(4-(trifluoromethoxy)Benzoyloxy)Phenylsulfonyl)-8-azaspiro[4.5]decane-3-carboxamide]",> 25000 nM,,
COc1ccc(C(=O)Oc2ccc(S(=O)(=O)C3(C(=O)NO)CCC4(CCNCC4)C3)cc2Cl)cc1 (centres unmarked) [Example 1-129],1000 to 10000 nM,,
O=C(NO)C1(S(=O)(=O)c2cccc(OCc3ccc(OC(F)(F)F)cc3)c2)CCC2(CCNCC2)C1 (centres unmarked) [Example 1-130],1000 to 10000 nM,,
COc1ccc(S(=O)(=O)[C@]2(C(=O)NO)CCC3(CCNCC3)C2)cc1Cl [Example 1-131],< 1000 nM,,
COc1ccc(S(=O)(=O)[C@@]2(C(=O)NO)CCC3(CCNCC3)C2)cc1Cl [Example 1-132],< 1000 nM,,
CNC(=O)c1ccc(Oc2ccc(S(=O)(=O)C3(C(=O)NO)CCC4(CCNCC4)C3)cc2)cc1 (centres unmarked) [Example 1-133],,,"EC50 [2, 6]: < 1000 nM"
CNC(=O)c1ccc(Oc2ccc(S(=O)(=O)C3(C(=O)NO)CCC4(CCNCC4)C3)cc2)cc1 (centres unmarked) [Example 1-134],,,"EC50 [2, 6]: < 1000 nM"
O=C(NO)C1(S(=O)(=O)c2ccccc2NC2CCCCC2)CCC2(CCNCC2)C1 (centres unmarked) [Example 1-138],,,"EC50 [2, 6]: < 1000 nM"
"NC[C@H]1CC[C@H](C(=O)O)CC1 [TXA, tranexamic acid, reference compound]",1000 to 10000 nM,,"BT (bleeding time, mean) ([3]; 300 mg/Kg infused via femoral vein): ++** (10 minutes≦BT<20 minutes (++)); EC50 [4]: 1 to 1000 nM"
Aprotinin [reference compound],,,"BT (bleeding time, mean) ([3]; 10 mg/Kg infused via femoral vein): ++** (10 minutes≦BT<20 minutes (++))"
